A short description of data set [1]: Lipophilicity, log P of compound. Type of data set: physicochemical. The conditions noted are these: octanol/water; read-out: logP.
Data set [2] is described as follows: Protective activity against Daboia russellii venom-induced mortality by measuring venom LD50 in Swiss albino mouse at 6 mmol, iv preincubated with venom for 1 hr followed by administration to mouse measured after 24 hrs (reference value: 2.28 ug). The format is functional, Daboia russelii.
Data set [3] in a line: Protective activity against Daboia russellii venom-induced mortality in Swiss albino mouse at 6 mmol, iv preincubated with venom for 1 hr followed by administration to mouse measured after 24 hrs relative to untreated control. Type of data set: functional, Daboia russelii.
Data set [4] in a line: Protective activity against Naja kaouthia venom-induced mortality in Swiss albino mouse at 6 mmol, iv by measuring venom LD50 preincubated with venom for 1 hr followed by administration to mouse measured after 24 hrs (reference value: 2.82 ug). Type of data set: functional.
A short description of data set [5]: Protective activity against Naja kaouthia venom-induced mortality in Swiss albino mouse at 6 mmol, iv preincubated with venom for 1 hr followed by administration to mouse measured after 24 hrs relative to untreated control. Type of data set: functional.
The nature of data set [6]: Protective activity against Daboia russellii venom-induced hemorrhage in intradermally dosed Swiss albino mouse at 6 mmol assessed as hemorhagic lesion by measuring minimal […] dose preincubated with venom for 1 hr followed by administration to mouse measured after 24 hrs (reference value: 5 ug). The format is functional, Daboia russelii.
The nature of data set [7]: Protective activity against Daboia russellii venom-induced hemorrhage in intradermally dosed Swiss albino mouse at 6 mmol assessed as hemorhagic lesion preincubated with venom for 1 hr followed by administration to mouse measured after 24 hrs relative to untreated control. Type of data set: functional, Daboia russelii.
Data set [8] can be described thus: Protective activity against Daboia russellii venom-induced mortality in Swiss albino mouse at 6 mmol, iv by measuring venom LD50 administered immediately after venom injection measured after 24 hrs (reference value: 2.28ug). The format is functional, Daboia russelii.
Data set [9] is described as follows: Protective activity against Daboia russellii venom-induced mortality in Swiss albino mouse at 6 mmol, iv administered immediately after venom injection measured after 24 hrs relative to untreated control. The format is functional, Daboia russelii.
Data set [10] can be described thus: Protective activity against Naja kaouthia venom-induced mortality in Swiss albino mouse at 6 mmol, iv by measuring venom LD50 administered immediately after venom injection measured after 24 hrs (reference value: 2.82 ug). The format is functional.
Data set [11] is described as follows: Protective activity against Naja kaouthia venom-induced mortality in Swiss albino mouse at 6 mmol, iv administered immediately after venom injection measured after 24 hrs relative to untreated control. The format is functional.
A short description of data set [12]: Protective activity against Daboia russellii venom-induced hemorrhage in Swiss albino mouse at 6 mmol, iv assessed as hemorhagic lesion by measuring […] administered immediately after venom injection measured after 24 hrs (Rvb =5 ug). Type of data set: functional, Daboia russelii.
Data set [13] in a line: Protective activity against Daboia russellii venom-induced hemorrhage in Swiss albino mouse at 6 mmol, iv assessed as hemorhagic lesion administered immediately after venom injection measured after 24 hrs relative to untreated control. The format is functional, Daboia russelii.

As for `COc1ccc(C(=O)O)c(O)c1` [4-METHOXYSALICYLIC ACID], the logP in [1] was 1.21. The LD50 in [2] came to 22 µg; in data set [4], 9 µg; in data set [8] it was 150 µg; in data set [10] it was 10 µg. Further, the “fold change (FC)” value in data set [3] came out at 9.8; in [5], 3.2; in [7], 4; in [9] it was 3.75; in data set [11] it was 2; in data set [13], 2. Also, the values for the MHC in data set [6] and in data set [12] were 20 µg and 10 µg, respectively.

These data come from ChEMBL document CHEMBL3785074, “Molecular modeling and snake venom phospholipase A2 inhibition by phenolic compounds: Structure-activity relationship” (Eur J Med Chem, 2016).
